{"source": "patent USRE47475E1", "about": "“Selective agents for pain suppression” (WiSys Technology Foundation, Inc., priority 2002, dated 2019)", "key": {"[1]": {"tested_on": "motor coordination of mice", "test": "rotarod test (motor impairment)", "assay_type": "in vivo", "settings": "HZ166 16 and 48 mg/kg, gabapentin 10 and 30 mg/kg, i.p., 60 min after treatment", "description": "Motor impairment: A possible impairment of motor function was analyzed in the rotarod test. Mice were trained on the rotarod (diameter 3 cm, 2 rpm) for 2 days. Animals capable of remaining on the rotarod in the absence of treatment for at least 2 min were selected for drug testing. On the test day, the latency to fall off the rod was recorded before and 60 minutes after treatment with vehicle, HZ166 or gabapentin."}, "[2]": {"tested_on": "Sciatic Ligation neuropathic pain", "test": "T23 partial ligation of the sciatic nerve (mechanical allodynia)", "assay_type": "in vivo, rats", "settings": "dose 35.5 (HZ-166), 18 (JY-XHE-053), 1 (XLI-JY-DMH) mg/kg; TPE 2 hr", "description": "Neuropathic pain. The pro- or antinociceptive effects of the compounds of the present invention are analyzed in two manners. […] Sterile technique will be used throughout the surgery. The upper thigh will be shaved and wiped off with ethanol and betadine. A small incision will then be made in the skin. The underlying muscle of the upper thigh will be separated and the sciatic nerve exposed. The nerve is separated from the surrounding connective tissue and slightly elevated by a pair of fine, curved forceps. Approximately ⅓ to ½ of the nerve is tied off by passing a needle (7.0) and nylon suture through the nerve. The muscle and skin incision are closed off separately with 5.0 suture and the animals kept warm until they have recovered from the anesthesia. This procedure is routinely done on the right side (ipsilateral) while a sham surgery is performed on the left hind leg (contralateral). The latter involves a similar procedure with the exception that the sciatic nerve on this side is only exposed. The rats will be closely monitored daily for the development of infection or untoward effects of the surgery in which case the animals will be immediately euthanized\nAfter an appropriate time for recovery (7 days) the animals will be tested for the development of mechanical allodynia (abnormal response to a non-noxious stimulus). The animals are each put in a bottomless plexiglass box placed on a wire mesh (¼″) platform. After 30-60 minutes in which to acclimate, a baseline mechanical sensitivity is determined. This procedure is done by applying a series of calibrated Von Frey fibres perpendicularly to the plantar surface of each hind paw and holding it there for about 6 secs with enough force to slightly bend the fibre. After a positive response (withdrawal of the foot) is noted a weaker fibre is applied. This is repeated until a 50% threshold for withdrawal can be determined\nThe allodynic threshold is then redetermined after intraperitoneal administration of an investigational AED. Testing will be conducted at the time-to-peak effect of the AED as determined in the acute seizure model."}, "[3]": {"tested_on": "rhesus monkeys", "test": "conflict model of anxiolytic activity which also measures sedation", "assay_type": "in vivo", "description": "The data in FIGS. 21A-21F reflect the ability of the compounds or drugs to exert an anxioyic effect in rhesus monkeys (J. Rowlett, J. M. Cook et al., unpublished results) when given intravenously in propylene glycol/water solution. This is the conflict model of anxiolytic activity which also measures sedation. […] In FIG. 21B, SH-053-2′F (JY-XHE-053) is anxiolytic at a dose of greater than 0.13 mg/kg, but exerts only some slight sedation at doses greater than 1.2 mg/kg (responses decrease). In FIG. 21C it is clear the S-enantiomer of SH-053-2′F—S—CH3 is anxiolytic with no sedation up to 10-18 mg/kg, which is the highest dose tested."}, "[4]": {"tested_on": "neuropathic pain after CCI of the sciatic nerve", "test": "tolerance development in the CCI model (chronic treatment)", "assay_type": "in vivo, mice", "settings": "for tolerance development / loss of antihyperalgesic activity: 9-day treatment period in neuropathic mice", "description": "Tolerance development: Possible development of tolerance against the antihyperalgesic effect of HZ166 was investigated in the CCI model. Starting from day 7 after CCI surgery, HZ166 at the dose of 16 mg/kg or vehicle were administered intraperitoneally once daily for 9 consecutive days. On day 10, each group (vehicle and HZ166) was subdivided in 2 subgroups: one received vehicle and the other HZ166 at the dose of 16 mg/kg. After the last injection, mechanical sensitivity was assessed for 3 hours."}}}
{"smiles": "C#Cc1ccc2c(c1)C(c1ccccn1)=NCc1c(C(=O)OCC)ncn1-2", "note": "[HZ-166, 8-Acetylenyl-6-pyridin-2-yl-4H-benzo[f]imidazo[1,5-a][1,4]diazepine-3-carboxylic acid ethyl ester]", "values": [{"measurement": "interfered with rotarod performance", "setting": "[1]", "value": "Neither"}, {"measurement": "Change (% of Control) ± SEM, T23 Sciatic Ligation", "setting": "[2]", "value": "210 % of Control"}, {"measurement": "Significance, T23 Sciatic Ligation", "setting": "[2]", "value": "yes"}, {"measurement": "no sedation up to dose", "setting": "[3]; conflict model", "value": "up to 10 mg/kg"}, {"measurement": "sedative activity (conflict model)", "setting": "[3]; intravenously", "value": "no sedative activity"}, {"measurement": "anxiolytic effect (conflict model)", "setting": "[3]; intravenously in propylene glycol/water", "value": "anxiolytic"}, {"measurement": "analgesic activity in mice chronically exposed to HZ166 versus drug-naïve mice", "setting": "[4]; 16 mg/kg once daily for 9 days from day 7 after CCI, test on day 10", "value": "virtually the same"}, {"measurement": "tolerance development / loss of antihyperalgesic activity", "setting": "[4]", "value": "did not develop tolerance"}, {"measurement": "tolerance development / loss of antihyperalgesic activity", "setting": "[4]; listed as HZ166", "value": "no loss"}]}
